Test results as given in patent US20240101531A1, “PYRIDINAMINE DERIVATIVES AND THEIR USE AS POTASSIUM CHANNEL MODULATORS” (Xenon Pharmaceuticals Inc., priority 2022, published 2024).
Where a name gives a salt, the structure may show the parent alone.

Each compound was assayed against human KV7.2/KV7.3 (Homo sapiens (Human), UniProt O43525+O43526) (assay: Potassium flux assay (IPG-2 AM dye)). Conditions: TREX HEK 293 or HEK 293 cells expressing human KV7.2/KV7.3; arithmetic mean values.
Assay type: cell-based
Summary of the method: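 EC50 from 16 concentrations (2-fold dilutions, top 30 μM), scaled between DMSO baseline and a known KV7.x modulator maximum. Signal is IPG-2 AM fluorescence (ex 530/em 558 nm) after 10 mM KCl challenge buffer addition, following 20 min room-temperature compound exposure of HEK 293 or TREX HEK 293 cells stably expressing human KV7.2/KV7.3.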

Compound | EC50 [µM]
Clc1ccc(Nc2nccc3cc(OCc4cnn5c4OCCC5)ccc23)cn1 [Example 84, N-(6-chloropyridin-3-yl)-6-((6,7-dihydro-5H-pyrazolo[5,1-b][1,3]oxazin-3-yl)methoxy)isoquinolin-1-amine] | 10 to 30
COCCOc1ccc2c(Nc3ccc(Cl)nc3)nccc2c1 [Example 4, N-(6-chloropyridin-3-yl)-6-(2-methoxyethoxy)isoquinolin-1-amine] | 1 to 10
C[C@](O)(COc1ccc2c(Nc3ccc(Cl)nc3)nccc2c1)C(F)(F)F [Example 225, (S)-3-((1-((6-chloropyridin-3-yl)amino)isoquinolin-6-yl)oxy)-1,1,1-trifluoro-2-methylpropan-2-ol] | 1 to 10
FC1(F)CC(COc2ccc3c(Nc4ccc(Cl)nc4)nccc3c2)C1 [Example 407, N-(6-chloropyridin-3-yl)-6-((3,3-difluorocyclobutyl)methoxy)isoquinolin-1-amine] | 1 to 10
Clc1ccc(Nc2nccc3cc(OCc4cnn5c4CCC5)ccc23)cn1 [Example 281, N-(6-chloropyridin-3-yl)-6-((5,6-dihydro-4H-pyrrolo[1,2-b]pyrazol-3-yl)methoxy)isoquinolin-1-amine] | 10 to 30
Clc1ccc(Nc2nccc3cc(OCCc4ccccn4)ccc23)cn1 [Example 183, N-(6-chloropyridin-3-yl)-6-(2-(pyridin-2-yl)ethoxy)isoquinolin-1-amine] | 1 to 10
FC(F)(F)CN1CC(Oc2ccc3c(Nc4ccc(Cl)nc4)nccc3c2)C1 [Example 325, N-(6-chloropyridin-3-yl)-6-((1-(2,2,2-trifluoroethyl)azetidin-3-yl)oxy)isoquinolin-1-amine] | 1 to 10
Cc1ncc(Nc2nccc3cc(OCC4CCC(C)(C)O4)ccc23)cn1 (centres unmarked) [Example 27, 6-((5,5-dimethyltetrahydrofuran-2-yl)methoxy)-N-(2-methylpyrimidin-5-yl)isoquinolin-1-amine] | 1 to 10
COc1ncc(Nc2nccc3cc(OCC4(F)CC4)ccc23)cn1 [Example 46, 6-((1-fluorocyclopropyl)methoxy)-N-(2-methoxypyrimidin-5-yl)isoquinolin-1-amine] | 1 to 10
Cc1ncc(Nc2nccc3cc(OCC4(F)COC4)ccc23)cn1 [Example 57, 6-((3-fluorooxetan-3-yl)methoxy)-N-(2-methylpyrimidin-5-yl)isoquinolin-1-amine] | 1 to 10
CC(=O)N[C@H]1CC[C@H](Oc2ccc3c(Nc4ccc(Cl)nc4)nccc3c2)CC1 [Example 317, N-(trans-4-((1-((6-chloropyridin-3-yl)amino)isoquinolin-6-yl)oxy)cyclohexyl)acetamide] | 1 to 10
N#C[C@@H]1CCC[C@H](Oc2ccc3c(Nc4ccc(Cl)nc4)nccc3c2)C1 [Example 343, (1R,3S)-3-((1-((6-chloropyridin-3-yl)amino)isoquinolin-6-yl)oxy)cyclohexane-1-carbonitrile] | 1 to 10
COc1ccc2c(Nc3ccc(Cl)nc3)ncc(OC)c2c1 [Example 410, N-(6-chloropyridin-3-yl)-4,6-dimethoxyisoquinolin-1-amine] | 10 to 30
N^8-(6-chloropyridin-3-yl)-N^3-((1-methyl-1H-pyrazol-4-yl)methyl)-1,7-naphthyridine-3,8-diamine [Example 251] | 1 to 10
Clc1ccc(Nc2nccc3cc(OCCCCCn4cncn4)ccc23)cn1 [Example 168, 6-((5-(1H-1,2,4-triazol-1-yl)pentyl)oxy)-N-(6-chloropyridin-3-yl)isoquinolin-1-amine] | 1 to 10
CC#CC(C)(C)COc1ccc2c(Nc3ccc(Cl)nc3)nccc2c1 [Example 161, N-(6-chloropyridin-3-yl)-6-((2,2-dimethylpent-3-yn-1-yl)oxy)isoquinolin-1-amine] | 1 to 10
Clc1ccc(Nc2nccc3cc(OCC4CC5(COC5)C4)ccc23)cn1 [Example 81, 6-((2-oxaspiro[3.3]heptan-6-yl)methoxy)-N-(6-chloropyridin-3-yl)isoquinolin-1-amine] | 1 to 10
Cn1ccnc1COc1ccc2c(Nc3ccc(Cl)nc3)nccc2c1 [Example 198, N-(6-chloropyridin-3-yl)-6-((1-methyl-1H-imidazol-2-yl)methoxy)isoquinolin-1-amine] | 1 to 10
Clc1ccc(Nc2nccc3cc(OCC45CCCN4CCC5)ccc23)cn1 [Example 115, N-(6-chloropyridin-3-yl)-6-((tetrahydro-1H-pyrrolizin-7a(5H)-yl)methoxy)isoquinolin-1-amine] | ≥ 30
O=S1(=O)CC[C@@H](Oc2ccc3c(Nc4ccc(Cl)nc4)nccc3c2)C1 [Example 261, (R)-3-((1-((6-chloropyridin-3-yl)amino)isoquinolin-6-yl)oxy)tetrahydrothiophene 1,1-dioxide] | 1 to 10

Second part, the compound after the results:

EC50 [µM] | Compound
1 to 10 | C[C@H](COc1ccc2c(Nc3ccc(Cl)nc3)nccc2c1)c1cnn(C)c1 [Example 160, (S)—N-(6-chloropyridin-3-yl)-6-(2-(1-methyl-1H-pyrazol-4-yl)propoxy)isoquinolin-1-amine]
< 1 | COc1cc(Nc2nccc3cc(OCc4cnn(C)c4)ccc23)cnc1Cl [Example 54, N-(6-chloro-5-methoxypyridin-3-yl)-6-((1-methyl-1H-pyrazol-4-yl)methoxy)isoquinolin-1-amine]
< 1 | O=C(N[C@H]1CCC[C@@H](Oc2ccc3c(Nc4cnc(Cl)nc4)nccc3c2)C1)C(F)(F)F [Example 377, N-((1 S,3R)-3-((1-((2-chloropyrimidin-5-yl)amino)isoquinolin-6-yl)oxy)cyclohexyl)-2,2,2-trifluoroacetamide]
< 1 | Cc1oncc1COc1ccc2c(Nc3ccc(Cl)nc3)nccc2c1 [Example 156, N-(6-chloropyridin-3-yl)-6-((5-methylisoxazol-4-yl)methoxy)isoquinolin-1-amine]
< 1 | CC(C)C1(COc2ccc3c(Nc4ccc(Cl)nc4)nccc3c2)COC1 [Example 152, N-(6-chloropyridin-3-yl)-6-((3-isopropyloxetan-3-yl)methoxy)isoquinolin-1-amine]
< 1 | C[C@]1(O)CCC[C@@H](Oc2ccc3c(Nc4ccc(Cl)nc4)nccc3c2)C1 [Example 148, (1S,3R)-3-((1-((6-chloropyridin-3-yl)amino)isoquinolin-6-yl)oxy)-1-methylcyclohexan-1-ol]
< 1 | N#CC1(COc2ccc3c(Nc4ccc(Cl)nc4)nccc3c2)CCC1 [Example 77, 1-(((1-((6-chloropyridin-3-yl)amino)isoquinolin-6-yl)oxy)methyl)cyclobutane-1-carbonitrile]
1 to 10 | COc1ncc(Nc2nccc3cc(OCC4CC4)ccc23)cn1 [Example 372, 6-(cyclopropylmethoxy)-N-(2-methoxypyrimidin-5-yl)isoquinolin-1-amine]
1 to 10 | Clc1ccc(Nc2nccc3cc(OC4CCN(Cc5ncccn5)CC4)ccc23)cn1 [Example 314, N-(6-chloropyridin-3-yl)-6-((1-(pyrimidin-2-ylmethyl)piperidin-4-yl)oxy)isoquinolin-1-amine]
1 to 10 | FC1(COc2ccc3c(Nc4ccc(Cl)nc4)nccc3c2)CCC1 [Example 141, N-(6-chloropyridin-3-yl)-6-((1-fluorocyclobutyl)methoxy)isoquinolin-1-amine]
1 to 10 | Clc1ccc(Nc2nccc3ccoc23)cn1 [Example 16, N-(6-chloropyridin-3-yl)furo[2,3-c]pyridin-7-amine formate]
< 1 | C[C@@]1(O)CCC[C@H](Oc2ccc3c(Nc4ccc(Cl)nc4)nccc3c2)C1 [Example 149, (1R,3S)-3-((1-((6-chloropyridin-3-yl)amino)isoquinolin-6-yl)oxy)-1-methylcyclohexan-1-ol]
< 1 | [2H]C([2H])(Oc1ccc2c(Nc3cnc(Cl)nc3)nccc2c1)C1(F)CC1 [Example 384, N-(2-chloropyrimidin-5-yl)-6-((1-fluorocyclopropyl)methoxy-d2)isoquinolin-1-amine]
< 1 | CC(=O)N1CCC(COc2ccc3c(Nc4ccc(Cl)nc4)nccc3c2)CC1 [Example 318, 1-(4-(((1-((6-chloropyridin-3-yl)amino)isoquinolin-6-yl)oxy)methyl)piperidin-1-yl)ethan-1-one]
< 1 | CO[C@@H]1CCC[C@H](Oc2ccc3c(Nc4cnc(Cl)nc4)nccc3c2)C1 (racemic) [Example 360, cis-N-(2-chloropyrimidin-5-yl)-6-(((1S,3R)-3-methoxycyclohexyl)oxy)isoquinolin-1-amine]
< 1 | Cc1n[nH]cc1COc1ccc2c(Nc3ccc(Cl)nc3)nccc2c1 [Example 393, N-(6-chloropyridin-3-yl)-6-((3-methyl-1H-pyrazol-4-yl)methoxy)isoquinolin-1-amine]
< 1 | C[C@H](Oc1ccc2c(Nc3ccc(Cl)nc3)nccc2c1)C1(F)CC1 [Example 140, (S)-N-(6-chloropyridin-3-yl)-6-(1-(1-fluorocyclopropyl)ethoxy)isoquinolin-1-amine]
< 1 | N#CC1(COc2ccc3c(Nc4ccc(Cl)nc4)nccc3c2)CCOCC1 [Example 50, 4-(((1-((6-chloropyridin-3-yl)amino)isoquinolin-6-yl)oxy)methyl)tetrahydro-2H-pyran-4-carbonitrile]
< 1 | CN(Cc1ccc2c(Nc3ccc(Cl)nc3)nccc2c1)c1cn[nH]c1 [Example 250, N-(6-chloropyridin-3-yl)-6-((methyl(1H-pyrazol-4-yl)amino)methyl)isoquinolin-1-amine]
< 1 | Cn1ccc(COc2ccc3c(Nc4ccc(Cl)nc4)nccc3c2)n1 [Example 150, N-(6-chloropyridin-3-yl)-6-((1-methyl-1H-pyrazol-3-yl)methoxy)isoquinolin-1-amine]
< 1 | Clc1ccc(Nc2nccc3cc(OCCC4COC4)ccc23)cn1 [Example 89, N-(6-chloropyridin-3-yl)-6-(2-(oxetan-3-yl)ethoxy)isoquinolin-1-amine]
